Data on 17 molecules can be found in patent publication US20110071150A1 (priority 2009, published 2011).

This assay concerns Jurkat IL-2 Production. Kind of assay: Jurkat IL-2 Production Assay. It counts as cell-based. To be noted: Homo sapiens, Jurkat cell (ATCC), 18-20 h incubation, PHA 5 μg/mL with 1% FBS, or PMA/Ionomycin with 30% FBS (table does not say which). Here is the method:
Jurkat IL-2 Production Assay
Cell: Jurkat cell (ATCC) was grown in RPMI 1640 with 10% FBS and 1% penicillin/streptomycin. The cell density was kept at 1.2-1.8×10^6/mL in culture flask before seeding into culture plate, and the cell density in the plate was 0.5×10^6/[…]/well.
Culture media: RPMI 1640 with 1% FBS or 30% FBS for high serum assay.
Test compound: serial dilution was done in 100% DMSO, and intermediate dilution was done with RPMI 1640 medium with 1% FBS. The DMSO final concentration in culture well was 0.25%.
Stimulant: PHA (Sigma#L9017-10MG) was used for the assay with 1% FBS in culture medium, and added after 10 minutes exposure of cell to compound/DMSO. The PHA final concentration in culture well was 5 μg/mL. PMA (Sigma# P-8139 5MG)/Ionomycin (Sigma# 10634-5MG) was used for the assay with 30% FBS in culture medium, and added at same time point as the 1% FBS culture assay. The final concentration of PMA was 50 ng/mL, and Ionomycin final concentration was 500 ng/mL.
Incubation: at 37° C. with 5% CO2 and 95% humidity for 18 h˜20 h.
IC50: IC50 was calculated with the data analysis software XLfit4, General Pharmacology model 251.
As usually defined, the IC50 is the midpoint of a concentration-inhibition curve. A lower IC50 goes with inhibition by little substance. On to `Cn1nc(-c2cccnc2)cc1-c1ccc2[nH]c(-c3cccc(F)c3F)cc2c1` [Example 84, 2-(2,3-Difluoro-phenyl)-5-(2-methyl-5-pyridin-3-yl-2H-pyrazol-3-yl)-1H-indole], for which the IC50 came out at 399 nM. In other words, the sub-micromolar range.
In turn, `Cc1sc(C(C)C)nc1-c1ccc2[nH]c(-c3ccccc3Cl)cc2c1` [Example 69, 2-(2-Chloro-phenyl)-5-(2-isopropyl-5-methyl-thiazol-4-yl)-1H-indole] displayed an IC50 of 949 nM.
`COCCOc1cc(F)c(-c2cc3cc(-c4ccc(C#N)cc4C)ccc3[nH]2)c(F)c1` [Example 153, 4-(2-(2,6-difluoro-4-(2-methoxyethoxy)phenyl)-1H-indol-5-yl)-3-methylbenzonitrile] came in with an IC50 of 331 nM.
Consider `Cn1nc(C(F)(F)F)cc1-c1ccc2[nH]c(C3CCCCC3)cc2c1` [Example 222], for which the IC50 is 40 nM.
In turn, `Cn1nc(-c2ccccn2)cc1-c1ccc2[nH]c(-c3ccccc3Cl)cc2c1` [Example 81, 2-(2-Chloro-phenyl)-5-(2-methyl-5-pyridin-2-yl-2H-pyrazol-3-yl)-1H-indole] returned an IC50 of 501 nM.
`Cc1cc(S(=O)(=O)N(C)C)ccc1-c1ccc2[nH]c(-c3c(F)cccc3Cl)cc2c1` [Example 159, 4-[2-(2-Chloro-6-fluoro-phenyl)-1H-indol-5-yl]-3,N,N-trimethyl-benzenesulfonamide] showed an IC50 of 25 nM. This IC50 lies about 20-fold lower than the previous one.
In the case of `Cc1cc(-c2nnn(C)n2)ccc1-c1ccc2[nH]c(-c3c(F)cccc3Cl)cc2c1` [Example 171, 2-(2-chloro-6-fluorophenyl)-5-(2-methyl-4-(2-methyl-2H-tetrazol-5-yl)phenyl)-1H-indole], the midpoint of inhibition, the IC50, lay at 17 nM.
`Fc1cccc(F)c1-c1cc2cc(-c3cccc(-c4ncco4)c3)ccc2[nH]1` [Example 24, 2-(2,6-Difluoro-phenyl)-5-(3-oxazol-2-yl-phenyl)-1H-indole] returned an IC50 of 427 nM. This IC50 lies about 25-fold higher than the previous one.
`Cc1cnccc1-c1cc2cc(-c3cc(C(F)(F)F)nn3C)ccc2[nH]1` [Example 37, 2-(3-Methyl-pyridin-4-yl)-5-(2-methyl-5-trifluoromethyl-2H-pyrazol-3-yl)-1H-indole] yielded an IC50 of 120 nM.
Molecule `Cn1nc(C2CC2)cc1-c1ccc2[nH]c(-c3c(F)cccc3F)cc2c1` [Example 63, 5-(5-Cyclopropyl-2-methyl-2H-pyrazol-3-yl)-2-(2,6-difluoro-phenyl)-1H-indole] gave an IC50 of 368 nM.
In turn, `CCn1nc(C(F)(F)F)cc1-c1ccc2[nH]c(C3CCCOC3)cc2c1` (centres unmarked) [Example 199, 5-(1-ethyl-3-(trifluoromethyl)-1H-pyrazol-5-yl)-2-(tetrahydro-2H-pyran-3-yl)-1H-indole] came in with an IC50 of 86 nM.
The molecule `Cc1cc(-c2nnco2)ncc1-c1ccc2[nH]c(-c3c(F)cccc3Cl)cc2c1` [Example 119, 2-(2-Chloro-6-fluoro-phenyl)-5-(4-methyl-6-[1,3,4]oxadiazol-2-yl-pyridin-3-yl)-1H-indole] displayed an IC50 of 14 nM.
Take `Cc1cc(C#N)ccc1-c1ccc2[nH]c(-c3sccc3C)cc2c1` [Example 146, methyl-4-(2-(3-methylthiophen-2-yl)-1H-indol-5-yl)benzonitrile]: 150 nM corresponded to half-maximal inhibition (IC50).
Regarding `COc1ccc(-c2ccc3[nH]c(-c4c(F)cccc4F)cc3c2)c(C)n1` [Example 101, 2-(2,6-Difluoro-phenyl)-5-(6-methoxy-2-methyl-pyridin-3-yl)-1H-indole], the IC50 was found to be 593 nM.
`Cc1cc(Cl)ccc1-c1ccc2[nH]c(-c3c(F)cccc3F)cc2c1` [Example 31, 5-(4-Chloro-2-methyl-phenyl)-2-(2,6-difluoro-phenyl)-1H-indole] showed an IC50 of 174 nM.
Molecule `COc1cc(F)c(-c2cc3cc(-c4ccc(C#N)cc4C)ccc3[nH]2)c(F)c1` [Example 135, 4-(2-(2,6-difluoro-4-methoxyphenyl)-1H-indol-5-yl)-3-methylbenzonitrile] had an IC50 of 283 nM. This IC50 lies about 1.6-fold higher than the previous one.
In turn, `CNC(=O)c1ccc(-c2ccc3[nH]c(-c4ccccc4Cl)cc3c2)c(C)c1` [Example 127, 4-[2-(2-Chloro-phenyl)-1H-indol-5-yl]-3,N-dimethyl-benzamide] came in with an IC50 of 991 nM.
